From ChEMBL document CHEMBL1133911, “Synthesis of OSW-1 analogues and a dimer and their antitumor activities” (Bioorg Med Chem Lett, 2001)

Experiments:
Format in all cases: functional
A549 [1] = assay: Percent growth inhibition of A-549 human lung adenocarcinoma at 10e-6 M compound concentration in standard MTT assay
A549 [2] = assay: Percent growth inhibition of A-549 human lung adenocarcinoma at 10e-7 M compound concentration in standard MTT assay
A549 [3] = assay: Percent growth inhibition of A-549 human lung adenocarcinoma at 10e-8 M compound concentration in standard MTT assay
P388 [4] = assay: Percent growth inhibition of P388 mouse leukemia at 10e-6 M compound concentration in standard MTT assay
P388 [5] = assay: Percent growth inhibition of P388 mouse leukemia at 10e-7 M compound concentration in standard MTT assay
P388 [6] = assay: Percent growth inhibition of P388 mouse leukemia at 10e-8 M compound concentration in standard MTT assay

Structure (SMILES) | inhibition at 1 µM (A549 [1]) [%] | inhibition at 0.1 µM (A549 [2]) [%] | inhibition at 0.01 µM (A549 [3]) [%] | inhibition at 1 µM (P388 [4]) [%] | inhibition at 0.1 µM (P388 [5]) [%] | inhibition at 0.01 µM (P388 [6]) [%]
CC(=O)OC1C(O[C@H]2CC[C@@]3(C)C(=CCC4C3CC[C@@]3(C)C4C[C@@H](OC4OCC(O)C(OC5OCC(O)C(O)C5OC(C)c5ccccc5)C4OC(C)=O)[C@]3(O)[C@H](C)C(=O)CCC(C)C)C2)OCC(O)C1OC1OCC(O)C(O)C1OC(C)c1ccccc1 (stereo not given in full) | 80.9 | 6.7 | 0.7 | 90.7 | 52 | 
CC(=O)OC1C(O[C@@H]2CC3C4CC=C5C[C@@H](O)CC[C@]5(C)C4CC[C@]3(C)[C@@]2(O)[C@H](C)C(=O)CCC(C)C)OCC(O)C1OC1OCC(O)C(O)C1OC(C)c1ccccc1 (stereo not given in full) | 53.8 | 29.5 |  | 66.7 | 35.4 | 15.5
CC(=O)OC[C@@H](C)[C@@]1(O)[C@H](OC2OCC(O)C(OC3OCC(O)C(O)C3OC(C)c3ccccc3)C2OC(C)=O)CC2C3CC=C4C[C@@H](OC(C)=O)CC[C@]4(C)C3CC[C@@]21C (stereo not given in full) | 6.2 | 0.8 |  | 20.4 | 15.5 | 17.9
